Test results taken from US10052320B2, “Substituted quinoxalines as FGFR kinase inhibitors” (ASTEX THERAPEUTICS LIMITED, priority 2011, dated 2018).

Key:
[1] = target: FGFR2 (h) (Homo sapiens, UniProt P21802); test: FGFR2 (enzymatic assay), TR-FRET; assay type: biochemical; conditions: read-out: FGFR 2 pIC50 (converted)
Experimental: In a final reaction volume of 30 μL, FGFR2 (h) (150 ng/ml) was incubated with 50 mM HEPES pH 7.5, 6 mM MnCl2, 1 mM DTT, 0.1 mM Na3VO4, 0.01% Triton-X-100, 500 nM Btn-Flt3 and 0.4 μM ATP in the presence of compound (1% DMSO final). […] Time-Resolved Fluorescence Resonance Energy Transfer (TR-FRET) signal (ex340 nm. Em 620 nm, em 655 nm) was measured afterwards and results are expressed in (Relative Fluorescence Units).

[2] = target: FGFR3 (h) (Homo sapiens, UniProt P22607); test: FGFR3 (enzymatic assay), TR-FRET; assay type: biochemical; conditions: read-out: FGFR 3 pIC50 (converted)
Sequence of FGFR3 (h) (P22607 23-806): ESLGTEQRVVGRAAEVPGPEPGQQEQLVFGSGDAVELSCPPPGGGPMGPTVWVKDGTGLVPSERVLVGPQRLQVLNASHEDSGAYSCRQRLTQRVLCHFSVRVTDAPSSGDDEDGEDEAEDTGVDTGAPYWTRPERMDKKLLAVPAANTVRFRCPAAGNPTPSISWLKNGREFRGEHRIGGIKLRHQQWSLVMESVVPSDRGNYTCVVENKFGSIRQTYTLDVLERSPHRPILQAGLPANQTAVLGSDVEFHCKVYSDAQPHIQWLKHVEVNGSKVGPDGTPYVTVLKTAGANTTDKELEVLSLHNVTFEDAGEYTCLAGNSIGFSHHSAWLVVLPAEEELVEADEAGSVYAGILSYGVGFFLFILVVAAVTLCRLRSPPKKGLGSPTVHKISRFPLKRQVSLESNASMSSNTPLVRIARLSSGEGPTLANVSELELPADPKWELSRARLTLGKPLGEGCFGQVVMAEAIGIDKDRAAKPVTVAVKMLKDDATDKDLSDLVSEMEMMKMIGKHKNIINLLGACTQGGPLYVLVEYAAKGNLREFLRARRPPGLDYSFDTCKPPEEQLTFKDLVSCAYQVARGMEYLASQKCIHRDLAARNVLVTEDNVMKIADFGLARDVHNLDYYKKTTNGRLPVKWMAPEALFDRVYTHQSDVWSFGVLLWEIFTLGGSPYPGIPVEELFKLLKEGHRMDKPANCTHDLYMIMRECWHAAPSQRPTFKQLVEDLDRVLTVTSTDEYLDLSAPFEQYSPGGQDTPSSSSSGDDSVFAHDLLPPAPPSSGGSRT
Experimental: In a final reaction volume of 30 μL, FGFR3 (h) (40 ng/ml) was incubated with 50 mM HEPES pH 7.5, 6 mM MnCl2, 1 mM DTT, 0.1 mM Na3VO4, 0.01% Triton-X-100, 500 nM Btn-Flt3 and 25 μM ATP in the presence of compound (1% DMSO final). […] Time-Resolved Fluorescence Resonance Energy Transfer (TR-FRET) signal (ex340 nm. Em 620 nm, em 655 nm) was measured afterwards and results are expressed in RFU (Relative Fluorescence Units).

[3] = target: FGFR4 (h) (Homo sapiens, UniProt P22455); test: FGFR4 (enzymatic assay), TR-FRET; assay type: biochemical; conditions: read-out: FGFR 4 pIC50 (converted)
Sequence of FGFR4 (h) (P22455 22-802): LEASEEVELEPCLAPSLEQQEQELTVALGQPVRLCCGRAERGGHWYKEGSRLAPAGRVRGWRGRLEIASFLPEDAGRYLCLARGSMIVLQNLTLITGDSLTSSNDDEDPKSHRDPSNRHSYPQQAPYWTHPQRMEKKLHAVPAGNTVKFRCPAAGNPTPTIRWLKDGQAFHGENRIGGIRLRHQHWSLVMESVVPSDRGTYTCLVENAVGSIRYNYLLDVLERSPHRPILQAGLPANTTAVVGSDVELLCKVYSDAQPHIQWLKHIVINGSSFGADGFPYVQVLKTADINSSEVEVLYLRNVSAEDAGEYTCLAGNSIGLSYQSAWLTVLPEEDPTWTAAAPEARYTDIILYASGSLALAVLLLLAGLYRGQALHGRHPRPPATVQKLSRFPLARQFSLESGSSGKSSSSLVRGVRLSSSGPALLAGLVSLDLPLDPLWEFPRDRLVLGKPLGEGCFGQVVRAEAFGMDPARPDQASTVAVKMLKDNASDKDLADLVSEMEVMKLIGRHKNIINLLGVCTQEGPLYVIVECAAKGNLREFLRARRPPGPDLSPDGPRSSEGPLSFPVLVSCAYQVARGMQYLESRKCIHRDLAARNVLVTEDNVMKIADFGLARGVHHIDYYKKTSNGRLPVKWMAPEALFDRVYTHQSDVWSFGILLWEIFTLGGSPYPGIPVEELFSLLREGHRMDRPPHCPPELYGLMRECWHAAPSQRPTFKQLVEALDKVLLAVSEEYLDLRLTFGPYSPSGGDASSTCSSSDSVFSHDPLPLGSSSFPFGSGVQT
Experimental: In a final reaction volume of 30 μL, FGFR4 (h) (60 ng/ml) was incubated with 50 mM HEPES pH 7.5, 6 mM MnCl2, 1 mM DTT, 0.1 mM Na3VO4, 0.01% Triton-X-100, 500 nM Btn-Flt3 and 5 μM ATP in the presence of compound (1% DMSO final). […] Time-Resolved Fluorescence Resonance Energy Transfer (TR-FRET) signal (ex340 nm. Em 620 nm, em 655 nm) was measured afterwards and results are expressed in RFU (Relative Fluorescence Units).

[4] = target: KDR (h) (VEGFR2) (Homo sapiens, UniProt P35968); test: KDR (VEGFR2) (enzymatic assay), TR-FRET; assay type: biochemical
Sequence of KDR (h) (VEGFR2) (P35968 20-1356): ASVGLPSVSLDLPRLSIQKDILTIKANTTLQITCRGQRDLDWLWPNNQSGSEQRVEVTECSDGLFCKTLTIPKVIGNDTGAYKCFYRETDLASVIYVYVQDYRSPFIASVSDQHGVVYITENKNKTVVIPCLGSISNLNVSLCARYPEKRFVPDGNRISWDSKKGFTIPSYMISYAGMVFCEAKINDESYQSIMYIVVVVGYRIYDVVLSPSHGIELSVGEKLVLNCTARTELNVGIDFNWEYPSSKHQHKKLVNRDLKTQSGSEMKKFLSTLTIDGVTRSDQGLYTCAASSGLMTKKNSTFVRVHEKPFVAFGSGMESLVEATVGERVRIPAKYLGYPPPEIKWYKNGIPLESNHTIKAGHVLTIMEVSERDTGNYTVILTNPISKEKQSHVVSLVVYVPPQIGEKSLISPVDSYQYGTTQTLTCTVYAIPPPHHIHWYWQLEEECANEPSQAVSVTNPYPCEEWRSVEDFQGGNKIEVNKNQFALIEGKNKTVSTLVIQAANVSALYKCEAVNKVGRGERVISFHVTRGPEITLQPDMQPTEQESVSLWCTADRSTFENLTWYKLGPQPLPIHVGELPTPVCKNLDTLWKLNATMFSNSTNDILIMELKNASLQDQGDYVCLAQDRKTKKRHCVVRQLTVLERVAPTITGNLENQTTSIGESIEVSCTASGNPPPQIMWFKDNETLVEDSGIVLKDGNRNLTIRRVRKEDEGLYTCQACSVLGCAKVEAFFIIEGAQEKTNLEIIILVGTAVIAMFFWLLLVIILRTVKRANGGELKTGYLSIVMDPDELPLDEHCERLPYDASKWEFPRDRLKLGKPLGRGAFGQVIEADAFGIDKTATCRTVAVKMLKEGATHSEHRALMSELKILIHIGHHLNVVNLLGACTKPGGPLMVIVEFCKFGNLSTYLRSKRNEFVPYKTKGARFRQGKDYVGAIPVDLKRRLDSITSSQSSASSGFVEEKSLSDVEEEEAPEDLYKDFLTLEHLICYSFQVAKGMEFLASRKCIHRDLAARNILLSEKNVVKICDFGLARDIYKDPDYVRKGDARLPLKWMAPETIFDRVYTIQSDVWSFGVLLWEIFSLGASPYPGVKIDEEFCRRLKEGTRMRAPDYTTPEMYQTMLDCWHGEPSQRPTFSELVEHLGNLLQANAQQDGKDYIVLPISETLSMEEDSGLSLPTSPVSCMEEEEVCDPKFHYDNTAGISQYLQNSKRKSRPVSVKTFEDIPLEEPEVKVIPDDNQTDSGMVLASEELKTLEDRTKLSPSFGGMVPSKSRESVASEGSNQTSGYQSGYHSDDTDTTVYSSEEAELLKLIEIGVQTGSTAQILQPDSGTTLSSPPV
Method in brief: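 Phosphorylation of biotinylated Flt3 peptide (500 nM) by 150 ng/ml enzyme was measured at 3 μM ATP in Mn2+-containing HEPES buffer, pH 7.5, over 120 min at room temperature. Detection used Eu-anti-P-Tyr and SA-XL-665 TR-FRET.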

[5] = target: Ba/F3-KDR-transfected cells (Homo sapiens, UniProt P35968); test: Ba/F3-KDR (minus IL3) cellular proliferation assay, Alamar Blue; assay type: cell-based; conditions: minus IL3
Sequence of Ba/F3-KDR-transfected cells (P35968 whole entry, change not shown): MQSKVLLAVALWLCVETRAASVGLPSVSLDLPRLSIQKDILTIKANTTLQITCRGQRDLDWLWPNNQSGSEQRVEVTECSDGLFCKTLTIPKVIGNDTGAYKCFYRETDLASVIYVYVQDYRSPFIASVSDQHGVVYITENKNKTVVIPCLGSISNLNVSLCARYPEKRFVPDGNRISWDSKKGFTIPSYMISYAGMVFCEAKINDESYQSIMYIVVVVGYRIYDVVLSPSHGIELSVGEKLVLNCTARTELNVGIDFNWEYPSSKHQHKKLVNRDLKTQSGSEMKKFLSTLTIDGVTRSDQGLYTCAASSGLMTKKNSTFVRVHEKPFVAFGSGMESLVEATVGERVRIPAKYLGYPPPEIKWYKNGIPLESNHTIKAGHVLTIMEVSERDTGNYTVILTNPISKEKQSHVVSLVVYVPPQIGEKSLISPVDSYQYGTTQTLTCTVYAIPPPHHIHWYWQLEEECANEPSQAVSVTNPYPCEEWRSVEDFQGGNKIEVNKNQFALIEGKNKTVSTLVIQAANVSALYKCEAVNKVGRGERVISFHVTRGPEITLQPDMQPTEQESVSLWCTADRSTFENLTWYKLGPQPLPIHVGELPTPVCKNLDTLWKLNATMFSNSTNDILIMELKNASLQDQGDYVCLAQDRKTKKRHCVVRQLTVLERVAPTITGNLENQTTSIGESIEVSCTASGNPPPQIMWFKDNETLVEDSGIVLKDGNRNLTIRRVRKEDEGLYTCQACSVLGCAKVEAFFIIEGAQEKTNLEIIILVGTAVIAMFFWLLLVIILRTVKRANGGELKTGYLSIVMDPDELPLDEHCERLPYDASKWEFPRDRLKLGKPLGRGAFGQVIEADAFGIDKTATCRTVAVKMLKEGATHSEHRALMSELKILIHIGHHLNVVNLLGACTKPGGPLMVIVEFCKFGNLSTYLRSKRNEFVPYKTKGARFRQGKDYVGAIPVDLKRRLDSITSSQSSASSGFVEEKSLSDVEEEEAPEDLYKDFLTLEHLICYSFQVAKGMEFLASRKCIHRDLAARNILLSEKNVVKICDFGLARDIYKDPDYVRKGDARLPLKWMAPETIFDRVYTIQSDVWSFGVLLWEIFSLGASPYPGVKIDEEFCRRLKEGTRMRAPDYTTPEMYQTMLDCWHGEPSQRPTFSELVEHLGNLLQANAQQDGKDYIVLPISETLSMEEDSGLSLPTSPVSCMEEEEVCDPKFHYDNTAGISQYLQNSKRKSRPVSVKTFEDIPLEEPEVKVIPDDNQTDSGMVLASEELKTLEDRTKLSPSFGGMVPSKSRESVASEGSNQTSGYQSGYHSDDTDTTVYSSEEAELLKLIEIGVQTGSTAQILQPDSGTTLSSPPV
Method in brief: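 Compound in DMSO was combined with Ba/F3-KDR-transfected cells in RPMI-1640, 10% FBS, 2 mM L-glutamine. After 24 h incubation at 37 °C, Alamar Blue was added for a further 4 h, then relative fluorescence units were measured.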

[6] = test system: Ba/F3-Flt3-transfected cells in the presence of 10 ng/ml murine IL3; test: Ba/F3-Flt3 (plus IL3) cellular proliferation counterscreen, Alamar Blue; assay type: cell-based; conditions: Mus musculus; plus 10 ng/ml murine IL3; read-out: BAF3-FLT3 (PLUS IL3) 384 well pIC50 (converted)

Sequence of FGFR2 (h) (P21802 22-821): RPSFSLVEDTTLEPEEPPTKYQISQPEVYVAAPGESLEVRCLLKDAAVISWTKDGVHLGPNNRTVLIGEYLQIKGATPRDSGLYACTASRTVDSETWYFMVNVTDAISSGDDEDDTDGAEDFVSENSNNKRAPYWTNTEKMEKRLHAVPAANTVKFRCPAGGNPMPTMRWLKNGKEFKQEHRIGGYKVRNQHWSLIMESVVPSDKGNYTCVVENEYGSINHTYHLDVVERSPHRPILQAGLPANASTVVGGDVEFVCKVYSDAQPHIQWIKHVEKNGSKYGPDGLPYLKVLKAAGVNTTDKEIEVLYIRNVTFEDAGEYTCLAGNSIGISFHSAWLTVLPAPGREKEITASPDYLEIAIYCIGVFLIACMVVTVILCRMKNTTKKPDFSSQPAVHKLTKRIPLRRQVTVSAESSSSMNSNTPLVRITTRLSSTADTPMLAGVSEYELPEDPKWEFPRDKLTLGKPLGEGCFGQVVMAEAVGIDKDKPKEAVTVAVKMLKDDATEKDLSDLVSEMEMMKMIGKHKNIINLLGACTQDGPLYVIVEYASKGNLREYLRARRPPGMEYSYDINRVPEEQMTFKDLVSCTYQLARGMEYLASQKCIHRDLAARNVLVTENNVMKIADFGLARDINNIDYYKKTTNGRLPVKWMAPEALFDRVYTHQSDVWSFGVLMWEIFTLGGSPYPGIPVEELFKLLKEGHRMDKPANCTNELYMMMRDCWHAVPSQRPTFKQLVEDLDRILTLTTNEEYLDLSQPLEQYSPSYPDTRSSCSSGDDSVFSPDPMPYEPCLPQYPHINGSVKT

| SMILES | IC50 [1] | IC50 [2] | IC50 [3] | IC50 [4] | BAF3-KDR (MIN IL3) 96 well pIC50 [5] | BAF3-KDR (MIN IL3) 384 well pIC50 [5] | IC50 [6] |
| --- | --- | --- | --- | --- | --- | --- | --- |
| COc1cc(OC)cc(N(CC2CC2)c2ccc3ncc(-n4cncn4)nc3c2)c1 [Compound 50] | ~0.708 µM | 0.447 µM | > 1 µM | > 1 µM | <5 | <5 | > 10 µM |
| COc1cc(OC)cc(N(CC2CC2)c2ccc3ncc(-c4nccn4C)nc3c2)c1 [Compound 60] | 1.41 µM | 0.955 µM | 1.12 µM | > 10 µM | – | <5 | > 10 µM |
| COc1cc(OC)cc(N(CCO)c2ccc3ncc(-c4cccnc4)nc3c2)c1 [Compound 9] | 0.017 µM | 0.00468 µM | 0.0525 µM | 0.295 µM | – | 5.12 | > 10 µM |
| COc1cc(OC)cc(N(CC2CC2)c2ccc3ncc(-n4ccc(C)n4)nc3c2)c1 [Compound 31] | > 1 µM | 0.339 µM | 0.776 µM | > 1 µM | – | <5 | > 10 µM |
| COc1cc(OC)cc(N(CCNC(C)C)c2ccc3ncc(-c4cccnc4)nc3c2)c1 [Compound 10] | 0.00589 µM | 0.0102 µM | 0.0234 µM | 0.295 µM | – | 5.56 | 9.33 µM |
| COc1cc(OC)cc(N(CC2CC2)c2ccc3ncc(-c4cn(CCN5CCOCC5)nn4)nc3c2)c1 [Compound 24] | 0.0251 µM | 0.00955 µM | 0.191 µM | 0.832 µM | <5 | <5 | > 10 µM |
| CNC(=O)c1cc(-c2cnc3ccc(N(CCCNCC(F)(F)F)c4cc(OC)cc(OC)c4)cc3n2)ccn1 [Compound 122] | 0.0468 µM | 0.0372 µM | 0.316 µM | > 1 µM | – | <5 | > 10 µM |
| COc1cc(OC)cc(N(CCCO)c2ccc3ncc(-c4ccnc(C(=O)NCCCN)c4)nc3c2)c1 [Compound 33] | 0.0229 µM | 0.0191 µM | 0.115 µM | 0.575 µM | – | <5 | > 10 µM |
| COc1cc(OC)cc(N(CCCNCC(F)(F)F)c2ccc3ncc(-c4ccc(N(C)C(=O)OC(C)(C)C)nc4)nc3c2)c1 [Compound 127] | 0.363 µM | 0.331 µM | 0.912 µM | > 1 µM | – | <5 | > 10 µM |
| COCCN(c1cc(OC)cc(OC)c1)c1ccc2ncc(-c3ccn(C)c3)nc2c1 [Compound 6] | 0.012 µM | 0.00692 µM | 0.0245 µM | 0.107 µM | – | 5.18 | > 10 µM |
| COc1cc(OC)cc(N(Cc2cccc(CN)n2)c2ccc3ncc(-c4ccc(N)nc4)nc3c2)c1 [Compound 51] | 0.00891 µM | 0.011 µM | 0.0692 µM | 0.309 µM | – | 5.04 | ~7.08 µM |
| CNC(=O)c1cc(-c2cnc3ccc(N(CCN4CCCC4=O)c4cc(OC)cc(OC)c4)cc3n2)ccn1 [Compound 25] | 0.251 µM | 0.282 µM | > 1 µM | > 1 µM | – | <5 | > 10 µM |
| COc1cc(OC)cc(N(CCCO)c2ccc3ncc(-c4ccnc(NC(=O)OC(C)(C)C)c4)nc3c2)c1 [Compound 128] | 0.135 µM | 0.0339 µM | > 1 µM | > 1 µM | – | <5 | > 10 µM |
| COc1cc(OC)cc(N(CC2CC2)c2ccc3ncc(-c4cn(CCO)nn4)nc3c2)c1 [Compound 40] | 0.0891 µM | 0.049 µM | 0.302 µM | 0.398 µM | <5 | <5 | > 10 µM |
| CCOC(=O)c1ncn(-c2cnc3ccc(N(CC4CC4)c4cc(OC)cc(OC)c4)cc3n2)c1C [Compound 65] | > 1 µM | > 1 µM | > 1 µM | > 1 µM | <5 | <5 | > 10 µM |
| COc1cc(OC)cc(N(CC2CC2)c2ccc3ncc(-n4nccc4C)nc3c2)c1 [Compound 62] | > 1 µM | > 1 µM | > 1 µM | > 1 µM | – | <5 | > 10 µM |
| COc1cc(OC)cc(N(CCCO)c2ccc3ncc(-c4ccc(F)nc4)nc3c2)c1 [Compound 117] | 0.0224 µM | 0.0117 µM | 0.0871 µM | 0.912 µM | – | <5 | > 10 µM |
| COc1cc(OC)cc(N(CC2CC2)c2ccc3ncc(-c4cnnn4C)nc3c2)c1 [Compound 72] | 0.479 µM | 0.389 µM | > 1 µM | > 1 µM | – | – | > 10 µM |
| COc1cc(OC)cc(N(CCCO)c2ccc3ncc(-c4ccc(N5CCOCC5)nc4)nc3c2)c1 [Compound 124] | – | 0.00339 µM | 0.0331 µM | 0.102 µM | – | 5.11 | > 10 µM |
| COc1cc(OC)cc(N(CC2CC2)c2ccc3ncc(-c4ccn(CCO)c4)nc3c2)c1 [Compound 56] | – | – | – | 0.151 µM | 5.29 | ~5 | > 10 µM |
| COc1cc(OC)cc(N(CC2CC2)c2ccc3ncc(-c4cn(C)nn4)nc3c2)c1 [Compound 71] | – | – | – | 0.813 µM | <5 | <5 | > 10 µM |
| COc1cc(OC)cc(N(CC(OC(C)=O)C(F)(F)F)c2ccc3ncc(-c4cccnc4)nc3c2)c1 (single isomer, unassigned) [Compound 45] | – | – | – | > 1 µM | – | <5 | > 10 µM |
